From patent US20130197023A1, “NEUROPROTECTION BY PHARMACOLOGICAL CHAPERONING OF NICOTINIC ACETYLCHOLINE RECEPTORS” (priority 2012, published 2013)

What was measured:
α4-eGFPβ2-wt nAChRs [1] = target: T1, α4-eGFPβ2-wt nAChRs (Mus musculus, UniProt O70174+Q9ERK7); format: cell-based
T1 construct: expressed in transfected cells; host or cells: mouse Neuro-2a cells
Experimental: Neuro-2a cells were plated on 12 mm glass coverslips within 35 mm plastic bottom cell culture dishes. The following day, cells were transfected with 500 ng α4-eGFP and 500 ng β2-wt nAChR subunits. 24 to 48 hr later, glass coverslips were transferred to dishes on the microscope stage. Green fluorescence was visualized with an upright microscope (BX50WI, Olympus) and UV illumination with appropriate excitation filters. Agonist-induced currents were tested at a holding potential of −65 mV using a focal, relatively rapid drug application system designed to minimize desensitization (Xiao et al., 2009). We applied drugs from the lowest to highest concentration at 3 min intervals to minimize desensitization. Whole-cell patch-clamp recordings were with a MultiClamp 700B amplifier, a 1322 analog-to-digital converter, and pCLAMP 9.2 software (all from Axon Instruments, Molecular Devices). Data were sampled at 10 kHz and filtered at 2 kHz.
The intrapipette solution contained (in mM): 135 potassium gluconate, 5 KCl, 5 EGTA, 0.5 CaCl2, 10 HEPES, 2 Mg-ATP, and 0.1 GTP; the pH was adjusted to 7.2 with Tris base and the osmolarity to 300 mOsm with sucrose. The extracellular solution contained (in mM): 140 NaCl, 5 KCl, 2 CaCl2, 1 MgCl2, 10 HEPES, and 10 glucose; pH was adjusted to 7.3 with Tris base. The Nernst potential for Cl^− in the intrapipette solution is −82.9 mV. The bath was continuously perfused with extracellular solution (ECS) at room temperature (23±1° C.). The patch electrodes had resistances of 5 to 8 MΩ. The junction potential between the patch pipette and the bath solutions was nulled just before forming a gΩ seal. Series resistance was monitored and compensated by 70-80% throughout recordings. The data were ignored if the series resistance (15-30 MΩ) changed by >20% during the recording session.

[2] = octanol and water, PubChem Compound; cited from earlier work
α4-eGFPβ2-wt nAChRs [3] = target: T1, α4-eGFPβ2-wt nAChRs; format: cell-based; remark: listed apart in the source
Text: Details of the quantification method have been previously described (Srinivasan et al., 2011). Briefly, PM fluorescence was extracted as follows: Raw TIRF images were converted to background-subtracted images and the ER fluorescence was thresholded and selected. ER fluorescence was then subtracted from the original image to generate images with PM fluorescence signals. These procedures yielded a dataset of several hundred thousand pixel intensities over the 15-50 cells in each experimental group. Fluorescence intensities are simply the sum of pixel values for either the PM or the ER or the ER+PM (using whole TIRF footprint images). Mean PM fluorescence intensity was derived by dividing the total fluorescence intensity for each experimental group by the number of imaged cells and normalized to intensity of untreated cells. Ratios of fluorescence intensities for the whole TIRF footprint (ER+PM) to ER were used to determine the post-Golgi fraction of receptors. For PM integrated density measurements, rather than plotting SEMs (which would be indistinguishably small on the plots), we have used “error bars” to depict 99% confidence intervals based on a two-tailed t-test. Measurements from drug treated cells were normalized to values of untreated cells imaged on the same day. DHβE TIRF experiments were performed on a different day from nicotine and cytisine experiments.

T1 sequence (O70174 31-629): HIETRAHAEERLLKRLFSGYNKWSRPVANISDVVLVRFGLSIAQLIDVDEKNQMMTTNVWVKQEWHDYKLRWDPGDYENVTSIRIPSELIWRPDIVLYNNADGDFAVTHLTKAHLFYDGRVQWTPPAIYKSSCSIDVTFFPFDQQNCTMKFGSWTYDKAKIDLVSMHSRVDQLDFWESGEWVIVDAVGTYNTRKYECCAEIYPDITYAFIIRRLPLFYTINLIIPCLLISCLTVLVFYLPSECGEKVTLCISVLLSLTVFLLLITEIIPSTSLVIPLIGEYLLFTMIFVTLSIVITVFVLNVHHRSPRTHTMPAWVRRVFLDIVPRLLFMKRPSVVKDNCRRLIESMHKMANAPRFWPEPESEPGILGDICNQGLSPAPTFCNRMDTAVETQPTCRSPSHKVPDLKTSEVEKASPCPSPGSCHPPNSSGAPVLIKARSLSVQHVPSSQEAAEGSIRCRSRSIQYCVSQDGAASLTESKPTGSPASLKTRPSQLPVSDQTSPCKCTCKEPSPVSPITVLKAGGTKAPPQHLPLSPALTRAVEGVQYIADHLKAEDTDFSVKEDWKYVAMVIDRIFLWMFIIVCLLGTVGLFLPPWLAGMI
T1 sequence (Q9ERK7 26-501): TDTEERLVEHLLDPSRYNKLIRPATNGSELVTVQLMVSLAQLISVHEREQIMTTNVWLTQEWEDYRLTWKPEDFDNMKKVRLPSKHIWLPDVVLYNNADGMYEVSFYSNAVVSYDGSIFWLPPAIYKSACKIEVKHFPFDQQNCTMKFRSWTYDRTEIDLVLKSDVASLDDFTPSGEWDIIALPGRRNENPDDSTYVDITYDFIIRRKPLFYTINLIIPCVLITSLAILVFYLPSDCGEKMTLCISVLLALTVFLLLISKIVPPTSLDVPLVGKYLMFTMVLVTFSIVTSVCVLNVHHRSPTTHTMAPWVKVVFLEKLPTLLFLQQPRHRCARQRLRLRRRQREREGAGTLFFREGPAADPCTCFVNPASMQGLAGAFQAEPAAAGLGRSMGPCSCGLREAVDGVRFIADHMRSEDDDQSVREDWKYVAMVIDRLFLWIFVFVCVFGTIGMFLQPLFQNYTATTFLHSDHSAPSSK

Q: With CN1CCCC1c1cccnc1 (stereo not drawn) [Nicotine, nicotine] as the compound, how does the “evoked currents as % of maximum currents induced by 500 μM nicotine” value (α4-eGFPβ2-wt nAChRs [1]) read?
A: 0.44±0.07%

Q: And the “fraction of the total receptor population activated” value (α4-eGFPβ2-wt nAChRs [1])?
A: 0.4%

Q: What about the logP [2] of the same compound?
A: 1.1

Q: And the “effect on the footprint/ER ratio (in words)” value (α4-eGFPβ2-wt nAChRs [3])?
A: reduction

Q: And the “increase in PM-localized nAChRs” value (α4-eGFPβ2-wt nAChRs [3])?
A: 2 fold

Q: What about the “reduction of the footprint/ER ratio” value (α4-eGFPβ2-wt nAChRs [3]) of the same compound?
A: ~2 fold
